In PMC10224441, “Structural Manipulations of Marine Natural Products Inspire a New Library of 3-Amino-1,2,4-Triazine PDK Inhibitors Endowed with Antitumor Activity in Pancreatic Ductal Adenocarcinoma” (Marine Drugs, 2023):
Structures can show the parent of a compound that is named as a salt. Where two headings read alike, the source gives them in different places.

Tests used:
BxPC-3 spheroids = assay: 3D spheroid cytotoxicity, acid phosphatase (APH) assay, BxPC-3; type: cell-based; details: Homo sapiens, 72 h, acid phosphatase (APH) test, read-out: IC50 (µM) ± S.D. BxPC-3 (3D spheroids)
recombinant human PDK1 = target: T1, recombinant human PDK1 (Homo sapiens, UniProt Q15118); assay: PDK1 ADPGlo Kinase Assay; type: biochemical; details: for IC50: isolated PDK1 isoform, four-parameter logistic model, mean of 3 independent experiments, read-out: IC50 (µM) ± S.D. PDK1
T1 construct: purchased Abcam
Method: The ability of the tested compounds to hamper the activity of PDK1-4 isoforms was firstly evaluated by means of a chemioluminescent assay, the ADPGlo™ Kinase Assay kit (Promega Corporation, Madison, WI, USA).
The in vitro inhibitory activity of tested compounds on recombinant human PDK1-4 isoforms (Abcam, Cambridge, MA, USA) was evaluated by using the ADPGlo™ Kinase Assay kit from Promega (Promega Corporation, Madison, WI, USA) following the instructions of the manufacturer, as previously described.

[1] = test system: BxPC-3 cells (KRAS-wild-type PDAC); assay: 2D cytotoxicity, MTT assay, BxPC-3; type: cell-based; details: Homo sapiens, read-out: IC50 (µM) ± S.D. BxPC-3 (2D)
Method: (§1) All newly developed 1,2,4-amino-triazine compounds were screened for their cytotoxic activity against two human PDAC cell lines, namely, a KRAS-wild-type PDAC cell line (BxPC-3 cells) and a KRAS-mutant PDAC cell line (PSN-1 cells). […] The cytotoxicity parameters, expressed in terms of IC50 and obtained after 72 h of drug exposure by MTT assay, are reported in Table 3.
(§2) All tested compounds were dissolved in DMSO just before the experiment, and a calculated amount of drug solution was added to the cell growth medium to a final solvent concentration of 0.5%, which had no detectable effects on cell viability.
(§3) Human pancreatic PSN-1 and BxPC-3 carcinoma cell lines were obtained by American Type Culture Collection (ATCC, Rockville, MD, USA). Cell lines were maintained in the logarithmic phase at 37 °C in a 5% carbon dioxide atmosphere using RPMI-1640 medium (EuroClone) containing 10% fetal calf serum (EuroClone, Milan, Italy), antibiotics (50 units/mL penicillin and 50 μg/mL streptomycin) and 2 mM l-glutamine.
(§4) The growth inhibitory effect on tumor cells was evaluated by means of MTT assay. Briefly, 5 × 10^3 cells/well were seeded in 96-well microplates in a growth medium (100 μL). After 24 h, the medium was removed and replaced with a fresh one containing the compound to be studied at the appropriate concentration. Triplicate cultures were established for each treatment. After 72 h, each well was treated with 10 μL of a 5 mg/mL MTT saline solution, and following 5 h of incubation, 100 μL of a sodium dodecyl sulfate (SDS) solution in HCl 0.01 M was added. After overnight incubation, cell growth inhibition was detected by measuring the absorbance of each well at 570 nm using a Bio-Rad 680 microplate reader. The mean absorbance for each drug dose was expressed as a percentage of the control untreated well absorbance and plotted vs. drug concentration. IC50 values, the drug concentrations that reduce the mean absorbance at 570 nm to 50% of those in the untreated control wells, were calculated by the four-parameter logistic (4-PL) model. The evaluation was based on means from at least four independent experiments.

[2] = test system: PSN-1 cells (KRAS-mutant PDAC); assay: 2D cytotoxicity, MTT assay, PSN-1; type: cell-based; details: Homo sapiens, read-out: IC50 (µM) ± S.D. PSN-1 (2D)
Method: as §1, §2, §3, §4

PSN-1 spheroids = assay: 3D spheroid cytotoxicity, acid phosphatase (APH) assay, PSN-1; type: cell-based; details: Homo sapiens, PSN1, 72 h, acid phosphatase (APH) test, read-out: IC50 (µM) ± S.D. PSN-1 (3D spheroids)
Method: Prompted by these encouraging results, we also screened the newly developed 1,2,4-triazine compounds against 3D spheroids of PDAC KRAS wild-type and mutant cells, to further estimate their anticancer potential in a more predictive environment. […] The PDAC cancer spheroids were treated with tested compounds for 72 h, and cell viability was assessed by means of the acid phosphatase (APH) assay (Table 3). The efficacy of gemcitabine as well as of DCA and DAP was assessed under the same experimental conditions.
Spheroid cultures were obtained by seeding 2.5 × 10^3 PSN-1 cancer cells/well in a round-bottom non-treated tissue culture 96-well plate (Greiner Bio-one, Kremsmünster, Austria) in phenol red-free RPMI-1640 medium (Sigma Chemical Co, St. Louis, MO, USA) containing 10% fetal calf serum and supplemented with 20% methylcellulose stock solution.
An APH-modified assay was used for determining cell viability in 3D spheroids, as previously described. Briefly, the pre-seeded spheroids were treated with fresh medium containing the compound to be studied at the appropriate concentration (range 2.5–200 μM). Triplicate cultures were established for each treatment. After 72 h, each well was treated with 100 μL of the assay buffer (0.1 M sodium acetate, 0.1% Triton-X-100, supplemented with ImmunoPure p-nitrophenyl phosphate; Sigma Chemical Co.) and, following 3 h of incubation, 10 μL of 1 M NaOH solution were added. The inhibition of the cell growth induced by the tested compounds was detected by measuring the absorbance of each well at 405 nm, using a Bio-Rad 680 microplate reader. The mean absorbance for each drug dose was expressed as a percentage of the control untreated well absorbance (T/C) and plotted vs. drug concentration. IC50 values, the drug concentrations that reduce the mean absorbance at 405 nm 50% of those in the untreated control wells, were calculated by the four-parameter logistic (4-PL) model. The evaluation was based on means from at least four independent experiments.

recombinant human HSP90 = recombinant human HSP90 (Homo sapiens, UniProt P07900); assay: HSP90 inhibition assay (Transcreener ADP kit); type: biochemical; details: isolated HSP90; four-parameter logistic model; mean of 3 independent experiments; read-out: IC50 (µM) ± S.D. HSP90
Method: Since the ATP binding pockets in PDKs and HSP90 are similar and taking into consideration that these 1,2,4-triazine derivatives conserved a chemical scaffold resembling that of the well-known Hsp90 inhibitor Ganetespib, the most performant PDK inhibitors 4d, 4f, 4h, 5d, 5f, 5h and 5j were also screened for their ability to target HSP90.
The in vitro inhibitory activity of tested compounds on recombinant human HSP90 was assessed by The Transcreener™ ADP kit (Bellbrook Labs, Madison, WI, USA) according to the manufacturer’s protocol as previously described.

[3] = BXPC-3, 72 h exposure, MTT test, 2D culture
[4] = PSN1, 72 h exposure, MTT test, 2D culture

T1 sequence (Q15118 29-436): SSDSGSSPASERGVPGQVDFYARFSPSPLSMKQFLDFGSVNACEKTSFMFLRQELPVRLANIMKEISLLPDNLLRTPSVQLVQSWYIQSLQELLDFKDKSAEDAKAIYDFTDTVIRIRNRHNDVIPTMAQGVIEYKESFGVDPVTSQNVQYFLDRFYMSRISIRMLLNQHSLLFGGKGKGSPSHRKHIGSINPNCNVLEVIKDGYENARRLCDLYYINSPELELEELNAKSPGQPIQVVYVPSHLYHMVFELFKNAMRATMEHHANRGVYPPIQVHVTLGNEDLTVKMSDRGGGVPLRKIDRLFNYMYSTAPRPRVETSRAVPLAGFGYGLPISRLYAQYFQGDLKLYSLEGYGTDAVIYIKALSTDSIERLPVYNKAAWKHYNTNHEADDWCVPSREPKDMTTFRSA

Row | SMILES | melting point [°C] | IC50 (recombinant human PDK1) [µM] | decrease in potency on PDK1 relative to 5d and 5j (recombinant human PDK1; compared with the other two examined ligands (5d, 5j)) [fold] | IC50 (BxPC-3 spheroids) [µM] | IC50 [1, 3] [µM] | IC50 [2, 4] [µM] | IC50 (PSN-1 spheroids) [µM] | IC50 ([1]; BXPC-3, 72 h) [µM] | IC50 (recombinant human HSP90) [µM] | IC50 ([2]; PSN1, 72 h) [µM]
1 | Cn1cc(-c2nnc(N)nc2-c2cn(C)c3ncccc23)c2ccccc21 [4a, 6-(1-Methyl-1H-indol-3-yl)-5-(1-methyl-1H-pyrrolo[2,3-b]pyridin-3-yl)-1,2,4-triazin-3-amine] | 268.1 | 0.3 ± 0.1 | – | 141.3 ± 0.1 | 15.7 ± 2.2 | 11.3 ± 2 | 97.5 ± 2.8 | – | – | –
2 | Cn1cc(-c2nnc(N)nc2-c2cn(C)c3ncc(Br)cc23)c2ccccc21 [4b, 5-(5-Bromo-1-methyl-1H-pyrrolo[2,3-b]pyridin-3-yl)-6-(1-methyl-1H-indol-3-yl)-1,2,4-triazin-3-amine] | 260 | 0.33 ± 0.05 | – | 224 ± 14.8 | 23.5 ± 3.2 | 19.5 ± 2.9 | 188 ± 13.8 | – | – | –
3 | Cn1cc(-c2nnc(N)nc2-c2cn(C)c3ncccc23)c2cc(Br)ccc21 [4c, 6-(5-Bromo-1-methyl-1H-indol-3-yl)-5-(1-methyl-1H-pyrrolo[2,3-b]pyridin-3-yl)-1,2,4-triazin-3-amine] | 176.3 | 0.26 ± 0.07 | – | 76.8 ± 5.1 | 9.5 ± 1.7 | 7.8 ± 1.5 | 55.8 ± 3.5 | – | – | –
4 | Cn1cc(-c2nnc(N)nc2-c2cn(C)c3ncccc23)c2cc(Cl)ccc21 [4e, 6-(5-Chloro-1-methyl-1H-indol-3-yl)-5-(1-methyl-1H-pyrrolo[2,3-b]pyridin-3-yl)-1,2,4-triazin-3-amine] | 178 | 0.29 ± 0.06 | 6 | 160 ± 11.4 | 32.3 ± 8.2 | 26.5 ± 4.3 | 59.6 ± 4.5 | – | – | –
5 | Cn1cc(-c2nnc(N)nc2-c2cn(C)c3ncccc23)c2cc(F)ccc21 [4g, 6-(5-Fluoro-1-methyl-1H-indol-3-yl)-5-(1-methyl-1H-pyrrolo[2,3-b]pyridin-3-yl)-1,2,4-triazin-3-amine] | 267.4 | 0.19 ± 0.04 | – | 71.5 ± 5.2 | 6.5 ± 1.1 | 4.5 ± 1.3 | 65.5 ± 6.8 | – | – | –
6 | COc1ccc2c(c1)c(-c1nnc(N)nc1-c1cn(C)c3ncccc13)cn2C [4i, 6-(5-methoxy-1-methyl-1H-indol-3-yl)-5-(1-methyl-1H-pyrrolo[2,3-b]pyridin-3-yl)-1,2,4-triazin-3-amine] | 217 | 0.33 ± 0.1 | – | 189 ± 10.9 | 31.2 ± 5.5 | 26.5 ± 4 | 140 ± 7.5 | – | – | –
7 | COc1ccc2c(c1)c(-c1nnc(N)nc1-c1cn(C)c3ncc(Br)cc13)cn2C [4j, 5-(5-Bromo-1-methyl-1H-pyrrolo[2,3-b]pyridin-3-yl)-6-(5-methoxy-1-methyl-1H-indol-3-yl)-1,2,4-triazin-3-amine] | 197.6 | 0.18 ± 0.06 | – | 160 ± 10.5 | 30.5 ± 3.4 | 27.8 ± 3.8 | 103 ± 8.7 | – | – | –
8 | O=C(c1ccccc1)C(Cl)Cl [DAP, 2,2-dichloroacetophenone, reference compound] | – | 212 ± 48 | – | 78.2 ± 6.2 | – | – | 87.4 ± 8.9 | 16.5 ± 0.9 | 698 ± 83 | 10.2 ± 1.6
9 | O=C(O)C(Cl)Cl [DCA, Dichloroacetate, reference compound] | – | – | – | – | – | – | 29800 ± 357 | > 1000 | – | > 1000
10 | Nc1ccn([C@@H]2O[C@H](CO)[C@@H](O)C2(F)F)c(=O)n1 [Gemcitabine, gemcitabine hydrochloride, reference compound] | – | – | – | 160 ± 5.6 | 0.02 ± 0.003 | 0.1 ± 0.04 | 103 ± 6.3 | – | – | –

Further lines, with some results ahead:

Row | melting point [°C] | IC50 (recombinant human PDK1) [µM] | decrease in potency on PDK1 relative to 5d and 5j (recombinant human PDK1; compared with the other two examined ligands (5d, 5j)) [fold] | SMILES | IC50 (BxPC-3 spheroids) [µM] | IC50 [1, 3] [µM] | IC50 [2, 4] [µM] | IC50 (PSN-1 spheroids) [µM] | IC50 ([1]; BXPC-3, 72 h) [µM] | IC50 (recombinant human HSP90) [µM] | IC50 ([2]; PSN1, 72 h) [µM]
11 | 235.5 | 0.32 ± 0.1 | – | Cn1cc(-c2nc(N)nnc2-c2cn(C)c3ncccc23)c2ccccc21 [5a, 5-(1-Methyl-1H-indol-3-yl)-6-(1-methyl-1H-pyrrolo[2,3-b]pyridin-3-yl)-1,2,4-triazin-3-amine] | 170 ± 9.4 | 27.2 ± 3.7 | 22.2 ± 2.7 | 78.8 ± 8.5 | – | – | –
12 | – | 0.21 ± 0.07 | – | Cn1cc(-c2nc(N)nnc2-c2cn(C)c3ncc(Br)cc23)c2ccccc21 [5b, 6-(5-Bromo-1-methyl-1H-pyrrolo[2,3-b]pyridin-3-yl)-5-(1-methyl-1H-indol-3-yl)-1,2,4-triazin-3-ylamine] | 68.5 ± 2.5 | 9.4 ± 1.3 | 5.2 ± 0.9 | 73.6 ± 6.8 | – | – | –
13 | 304.5 | 0.27 ± 0.08 | – | Cn1cc(-c2nc(N)nnc2-c2cn(C)c3ncccc23)c2cc(Br)ccc21 [5c, 5-(5-bromo-1-methyl-1H-indol-3-yl)-6-(1-methyl-1H-pyrrolo[2,3-b]pyridin-3-yl)-1,2,4-triazin-3-amine] | 156 ± 11.7 | 13.7 ± 2.9 | 9.2 ± 1.9 | 78.4 ± 5.8 | – | – | –
14 | 310.3 | 0.32 ± 0.1 | – | Cn1cc(-c2nc(N)nnc2-c2cn(C)c3ncccc23)c2cc(Cl)ccc21 [5e, 5-(5-Chloro-1-methyl-1H-indol-3-yl)-6-(1-methyl-1H-pyrrolo[2,3-b]pyridin-3-yl)-1,2,4-triazin-3-amine] | 200 ± 16.3 | 16.5 ± 3.8 | 14.2 ± 3.1 | 198 ± 12.4 | – | – | –
15 | 281.4 | 0.29 ± 0.1 | – | Cn1cc(-c2nc(N)nnc2-c2cn(C)c3ncccc23)c2cc(F)ccc21 [5g, 5-(5-Fluoro-1-methyl-1H-indol-3-yl)-6-(1-methyl-1H-pyrrolo[2,3-b]pyridin-3-yl)-1,2,4-triazin-3-amine] | 79.7 ± 11.4 | 19.8 ± 3.2 | 15.2 ± 4.6 | 130 ± 11.8 | – | – | –
16 | 288.2 | 0.31 ± 0.07 | – | COc1ccc2c(c1)c(-c1nc(N)nnc1-c1cn(C)c3ncccc13)cn2C [5i, 5-(5-Methoxy-1-methyl-1H-indol-3-yl)-6-(1-methyl-1H-pyrrolo[2,3-b]pyridin-3-yl)-1,2,4-triazin-3-amine] | 153 ± 10.3 | 0.31 ± 0.07 | 14.9 ± 3.2 | 112 ± 9.1 | – | – | –
